Results reported in patent US20140343324A1, “SYNTHETIC MATRIX FOR CONTROLLED CELL INGROWTH AND TISSUE REGENERATION” (Eidgenossische Technische Hochschule Zürich, priority 2001, published 2014).

Test system: human foreskin fibroblasts (hFFs)
Experiment: Three-dimensional cell invasion from hFF-fibrin clusters into PEG-based hydrogels
Settings: compared with collagen type I derived GCRDGPQGIAGQDRCG
Experimental: Near-confluent cultures of human foreskin fibroblasts (hFFs) were trypsinized, centrifuged and resuspended in 2% (m/v) fibrinogen from human plasma (Fluka, Switzerland) in sterile phosphate buffered solution (PBS) to a concentration of […]. To induce gelation of the hFF-fibrinogen suspension, thrombin (Sigma T-6884, Switzerland) and Ca^++ were added to final concentrations of 2 NIH units/mL and 2.5 mM, respectively, and rapidly mixed with the cell suspension. Prior to gelation, 2 μL droplets of this cell-fibrinogen precursor were gelled on microscope slides for ca. 15 min. at 37° C. The hFF-fibrin clusters were embedded inside 25 μl PEG-based hydrogels by placing three to four clusters into precursor solution prior to gelation. Such hFF-fibrin clusters embedded inside the PEG-based hydrogels were cultured serum-containing DMEM in the 12-well tissue culture plates for up to 30 days. Cell invasion from the cluster into the synthetic gel matrix was imaged and recorded with their center plane in focus. To quantify the penetration depth of the outgrowth, the area of the original hFF-fibrin cluster was measured in the center plane, as was the area of the hFF outgrowth, defined by the tips of the hFF branches in the center plane of focus. […]

## GCRDGPQGIWGQDRCG (Ac-GCRDGPQGIWGQDRCG-NH2; cysteine pairing not given here) [synthetic MMP substrate capable of forming a hydrogel by Michael-type addition]
  degradation of MMP substrate in hydrogel: degrades significantly faster
